Data taken from patent US20260053812A1, “METHODS OF TREATING HYPERTENSION WITH A COMBINATION OF AN ALDOSTERONE SYNTHASE INHIBITOR AND A DIURETIC” (Mineralys Therapeutics, Inc., priority 2022, published 2026).

Assay: Estimated glomerular filtration rate (eGFR, CKD-EPI equation)
Format: in vivo, human

## CC(=O)N[C@H]1CC[C@H](NC(=O)CN2CCN(c3nncc(-c4ccc(C)cc4)n3)CC2)CC1 [Compound A HBr]
Part 1, 25 mg BID, Week 1
  Estimated Glomerular Filtration Rate, mean change from baseline: −6.85 mL/min/1.73 m^2
  Estimated Glomerular Filtration Rate, mean observed: 74.00 mL/min/1.73 m^2
Part 1, 25 mg BID, Week 2
  Estimated Glomerular Filtration Rate, mean change from baseline: −5.42 mL/min/1.73 m^2
  Estimated Glomerular Filtration Rate, mean observed: 75.43 mL/min/1.73 m^2
Part 1, 25 mg BID, Week 3
  Estimated Glomerular Filtration Rate, mean change from baseline: −5.90 mL/min/1.73 m^2
  Estimated Glomerular Filtration Rate, mean observed: 75.07 mL/min/1.73 m^2
Part 1, 25 mg BID, Week 4
  Estimated Glomerular Filtration Rate, mean change from baseline: −6.69 mL/min/1.73 m^2
  Estimated Glomerular Filtration Rate, mean observed: 73.48 mL/min/1.73 m^2
Part 1, 25 mg BID, Week 5
  Estimated Glomerular Filtration Rate, mean change from baseline: −7.41 mL/min/1.73 m^2
  Estimated Glomerular Filtration Rate, mean observed: 73.25 mL/min/1.73 m^2
Part 1, 25 mg BID, Week 6
  Estimated Glomerular Filtration Rate, mean change from baseline: −8.02 mL/min/1.73 m^2
  Estimated Glomerular Filtration Rate, mean observed: 72.64 mL/min/1.73 m^2
Part 1, 25 mg BID, Week 7
  Estimated Glomerular Filtration Rate, mean change from baseline: −7.85 mL/min/1.73 m^2
  Estimated Glomerular Filtration Rate, mean observed: 72.22 mL/min/1.73 m^2
Part 1, 25 mg BID, Week 8
  Estimated Glomerular Filtration Rate, mean change from baseline: −5.55 mL/min/1.73 m^2
  Estimated Glomerular Filtration Rate, mean observed: 75.11 mL/min/1.73 m^2
Part 1, 50 mg QD, BL
  Estimated Glomerular Filtration Rate, mean observed: 77.18 mL/min/1.73 m^2
Part 1, 50 mg QD, Week 1
  Estimated Glomerular Filtration Rate, mean change from baseline: −2.96 mL/min/1.73 m^2
  Estimated Glomerular Filtration Rate, mean observed: 74.21 mL/min/1.73 m^2
Part 1, 50 mg QD, Week 2
  Estimated Glomerular Filtration Rate, mean change from baseline: −4.32 mL/min/1.73 m^2
  Estimated Glomerular Filtration Rate, mean observed: 72.86 mL/min/1.73 m^2
Part 1, 50 mg QD, Week 3
  Estimated Glomerular Filtration Rate, mean change from baseline: −2.35 mL/min/1.73 m^2
  Estimated Glomerular Filtration Rate, mean observed: 74.81 mL/min/1.73 m^2
Part 1, 50 mg QD, Week 4
  Estimated Glomerular Filtration Rate, mean change from baseline: −3.61 mL/min/1.73 m^2
  Estimated Glomerular Filtration Rate, mean observed: 73.63 mL/min/1.73 m^2
Part 1, 50 mg QD, Week 5
  Estimated Glomerular Filtration Rate, mean change from baseline: −4.10 mL/min/1.73 m^2
  Estimated Glomerular Filtration Rate, mean observed: 70.58 mL/min/1.73 m^2
Part 1, 50 mg QD, Week 6
  Estimated Glomerular Filtration Rate, mean change from baseline: −2.83 mL/min/1.73 m^2
  Estimated Glomerular Filtration Rate, mean observed: 74.63 mL/min/1.73 m^2
Part 1, 50 mg QD, Week 7
  Estimated Glomerular Filtration Rate, mean change from baseline: −5.46 mL/min/1.73 m^2
  Estimated Glomerular Filtration Rate, mean observed: 69.68 mL/min/1.73 m^2
Part 1, 50 mg QD, Week 8
  Estimated Glomerular Filtration Rate, mean change from baseline: −4.64 mL/min/1.73 m^2
  Estimated Glomerular Filtration Rate, mean observed: 72.54 mL/min/1.73 m^2
Part 1, 100 mg QD, BL
  Estimated Glomerular Filtration Rate, mean observed: 77.35 mL/min/1.73 m^2
Part 1, 100 mg QD, Week 1
  Estimated Glomerular Filtration Rate, mean change from baseline: −6.80 mL/min/1.73 m^2
  Estimated Glomerular Filtration Rate, mean observed: 70.81 mL/min/1.73 m^2
Part 1, 100 mg QD, Week 2
  Estimated Glomerular Filtration Rate, mean change from baseline: −10.91 mL/min/1.73 m^2
  Estimated Glomerular Filtration Rate, mean observed: 65.56 mL/min/1.73 m^2
Part 1, 100 mg QD, Week 3
  Estimated Glomerular Filtration Rate, mean change from baseline: −9.24 mL/min/1.73 m^2
  Estimated Glomerular Filtration Rate, mean observed: 67.22 mL/min/1.73 m^2
Part 1, 100 mg QD, Week 4
  Estimated Glomerular Filtration Rate, mean change from baseline: −9.46 mL/min/1.73 m^2
  Estimated Glomerular Filtration Rate, mean observed: 67.23 mL/min/1.73 m^2
Part 1, 100 mg QD, Week 5
  Estimated Glomerular Filtration Rate, mean change from baseline: −10.50 mL/min/1.73 m^2
  Estimated Glomerular Filtration Rate, mean observed: 66.19 mL/min/1.73 m^2
Part 1, 100 mg QD, Week 6
  Estimated Glomerular Filtration Rate, mean change from baseline: −9.94 mL/min/1.73 m^2
  Estimated Glomerular Filtration Rate, mean observed: 66.19 mL/min/1.73 m^2
Part 1, 100 mg QD, Week 7
  Estimated Glomerular Filtration Rate, mean change from baseline: −9.50 mL/min/1.73 m^2
  Estimated Glomerular Filtration Rate, mean observed: 66.96 mL/min/1.73 m^2
Part 1, 100 mg QD, Week 8
  Estimated Glomerular Filtration Rate, mean change from baseline: −7.83 mL/min/1.73 m^2
  Estimated Glomerular Filtration Rate, mean observed: 68.42 mL/min/1.73 m^2
Part 2, 100 mg QD, BL
  Estimated Glomerular Filtration Rate, mean observed: 79.90 mL/min/1.73 m^2
Part 2, 100 mg QD, Week 1
  Estimated Glomerular Filtration Rate, mean change from baseline: −9.65 mL/min/1.73 m^2
  Estimated Glomerular Filtration Rate, mean observed: 70.73 mL/min/1.73 m^2
Part 2, 100 mg QD, Week 2
  Estimated Glomerular Filtration Rate, mean change from baseline: −8.05 mL/min/1.73 m^2
  Estimated Glomerular Filtration Rate, mean observed: 72.07 mL/min/1.73 m^2
Part 2, 100 mg QD, Week 3
  Estimated Glomerular Filtration Rate, mean change from baseline: −7.33 mL/min/1.73 m^2
  Estimated Glomerular Filtration Rate, mean observed: 72.69 mL/min/1.73 m^2
Part 2, 100 mg QD, Week 4
  Estimated Glomerular Filtration Rate, mean change from baseline: −7.20 mL/min/1.73 m^2
  Estimated Glomerular Filtration Rate, mean observed: 72.92 mL/min/1.73 m^2
Part 2, 100 mg QD, Week 5
  Estimated Glomerular Filtration Rate, mean change from baseline: −8.69 mL/min/1.73 m^2
  Estimated Glomerular Filtration Rate, mean observed: 71.23 mL/min/1.73 m^2
Part 2, 100 mg QD, Week 6
  Estimated Glomerular Filtration Rate, mean change from baseline: −10.87 mL/min/1.73 m^2
  Estimated Glomerular Filtration Rate, mean observed: 68.04 mL/min/1.73 m^2
Part 2, 100 mg QD, Week 7
  Estimated Glomerular Filtration Rate, mean change from baseline: −7.34 mL/min/1.73 m^2
  Estimated Glomerular Filtration Rate, mean observed: 72.82 mL/min/1.73 m^2
Part 2, 100 mg QD, Week 8
  Estimated Glomerular Filtration Rate, mean change from baseline: −7.95 mL/min/1.73 m^2
  Estimated Glomerular Filtration Rate, mean observed: 72.43 mL/min/1.73 m^2
Across dosing cohorts
  Change in estimated glomerular filtration rate (eGFR): dose-dependent and reversible reduction
